Measured values from patent publication US7960439B1, “Environmentally sensitive foldable oligomers” (Iowa State University Research Foundation, Inc., priority 2006, dated 2011).

Experiments:
[1] = Solvent denaturation of donor-acceptor labeled cholate oligomers followed by FRET (two-state model); type: physicochemical; details: for m (in parentheses) / ΔG0 (in parentheses): linear fitting of unfolding free energies (FIG. 12); for m / ΔG0: nonlinear least-squares fitting to two-state model (FIG. 11)
Text: According to the two-state model, at any given concentration of the denaturant (i.e., DMSO), only the folded and unfolded conformations are present and their fractions are represented by fF and fU. Fraction of the unfolded conformation can be calculated by: fU=(IF−I)/(IF−IU) (2) in which I is the observed emission intensity of the acceptor in a given foldamer, IF is the emission intensity of the acceptor in the fully folded conformer, and IU is the emission intensity of the acceptor in the fully unfolded conformer. The equilibrium constant (Keq) and the free energy (ΔG) for the folding reaction can be calculated using ΔG=RT ln Keq=−RT ln(fU/fF)=−RT ln [fU/(1−fU)] (3)
In order to calculate fractions of the unfolded conformations, both IF and IU must be known for different foldamers. The emission intensity of the acceptor in the 1:1 mixture of the monomer A 8 (MA) and monomer D 9(MD) should be good approximations for IU since the emission intensity of the longer foldamers (e.g., pentamer-DA 5 (PDA)) does converge to that of the (MA+MD) mixture upon unfolding. The value of IF, on the other hand, cannot be obtained directly because none of the three foldamers seem to be fully folded under the initial condition of 1% DMSO.
In general, to obtain the values of IF for PDA, hexamer-DA 6 (HXDA), and heptamer-DA 7 (HPDA), it is useful to first make an assumption for fU (e.g., fU=0.1 for the HPDA) in 1% DMSO and use it to calculate the corresponding value of IF, which is designated IF(1). Using IF(1), the first set of fU(1) can be calculated at different DMSO percentages according to equation 2. In the two-state model, the free energies are linearly related to the concentration of denaturant (i.e., DMSO): ΔG=ΔG0−m[DMSO] (4) in which ΔG0 is the free energy for the folding reaction in the absence of denaturant and m measures how sensitive the folding equilibrium is toward DMSO percentage. From equations 2, 3, and 4, the following equation 5 can be obtained, where equation 5 describes the relationship between fU and DMSO percentage: fU=1/{1+1/exp[−(ΔG0−m[DMSO])/RT]} (5)
As a result, the initial values of ΔG0 and m (which are designated as ΔG0(1) and m1) can be obtained by nonlinear least-squares fitting to the first set of fU(1). The resulting ΔG0(1) and m1 are used to calculate the refined value of IF(2) using equations 5 and 2. This process is repeated as long as there is a fairly large difference between the entering IF(n) value and the resulting IF(n+1) value. In general, fitting of the data improves over several rounds of refinement. The refinement is stopped in the end when the values of IF(n) and IF(n+1) are within 1% of each other and are taken as the final value of IF.
In such data processing, it is assumed that IF was independent of DMSO percentage. Such an assumption is expected to underestimate the stability of the cholate foldamers. This is because the emission of MA is shown to be slightly quenched by DMSO—the emission intensity decreases by about 20% over 1-5% DMSO.
FRET Study of the Donor-Acceptor Labeled Cholate Oligomers 5-9 Stock solutions (2.0×10^−4M) of 5-9 in anhydrous THF were prepared. An aliquot (20.0 μL) of the stock solution was diluted by (a) 2.00 mL of ethyl acetate/hexane (v/v=1.05/2) with 1 vol. % DMSO and (b) […] 2.00 mL of ethyl acetate/hexane (v/v=1/1) with 1 vol. % DMSO in a quartz cuvet. Ten aliquots of DMSO (10.0 μL each) were added to the sample. After each addition, the sample was vortexed for 1 minute before the fluorescence spectrum was recorded. The excitation wavelength was set at 287 nm.

[2] = Fluorescence quenching of NBD-labeled cholate oligomers by hydrophilic quencher 11; type: binding
Protocol: Fluorescence Quenching of the NBD-Labeled Cholate Oligomers 1-4: Typical procedures for the quenching experiment are as follows. Stock solutions (1.0×10^−3 M) of 1-4 in anhydrous THF were prepared. An aliquot (25.0 μL) of the stock solution was diluted by 2.00 mL of carbon tetrachloride with 5 vol. % DMSO in a quartz cuvet. Aliquots (5.0 μL, 0.8 M) of the quencher (11 or 12) in THF were added with a Hamilton Gastight syringe. After each addition, the sample was vortexed for 1 minute before the fluorescence spectrum was recorded. The excitation wavelength was set at 336 nm and the maximum emission intensity at 527 nm was monitored.

[3] = DMSO in ethyl acetate/hexane (1/1)
[4] = DMSO in ethyl acetate/hexane (1/2)

Compound	m (in parentheses) [1, 3] [kcal/mol]	ΔG0 (in parentheses) [1, 3] [kcal/mol]	m [1, 3] [kcal/mol]	ΔG0 [1, 3] [kcal/mol]	m (in parentheses) [1, 4] [kcal/mol]	ΔG0 (in parentheses) [1, 4] [kcal/mol]	m [1, 4] [kcal/mol]	ΔG0 [1, 4] [kcal/mol]	reduction of fluorescence by quencher 11 ([2]; 5.6 mM of 11 in 2% methanol/CCl4) [fold]	reduction of fluorescence by quencher 11 ([2]; 5.6 mM of 11 in 5% DMSO/CCl4) [fold]
CC(CCC(=O)Nc1cccc2ccccc12)C1CCC2C3C(O)CC4CC(NC(=O)CCC(C)C5CCC6C7C(O)CC8CC(NC(=O)CCC(C)C9CCC%10C%11C(O)CC%12CC(NC(=O)CCC(C)C%13CCC%14C%15C(O)CC%16CC(NC(=O)CCC(C)C%17CCC%18C%19C(O)CC%20CC(NC(=O)CCC(C)C%21CCC%22C%23C(O)CC%24CC(NS(=O)(=O)c%25cccc%26c(N(C)C)cccc%25%26)CCC%24(C)C%23CC(O)C%21%22C)CCC%20(C)C%19CC(O)C%17%18C)CCC%16(C)C%15CC(O)C%13%14C)CCC%12(C)C%11CC(O)C9%10C)CCC8(C)C7CC(O)C56C)CCC4(C)C3CC(O)C12C (stereo not shown) [Compound 6]	0.89	1.9	0.81 ± 0.06	1.8 ± 0.1	0.52	1.8	0.50 ± 0.02	1.7 ± 0.1		
COC(=O)CCC(C)C1CCC2C3C(O)CC4CC(NC(=O)CCC(C)C5CCC6C7C(O)CC8CC(NC(=O)CCC(C)C9CCC%10C%11C(O)CC%12CC(NC(=O)CCC(C)C%13CCC%14C%15C(O)CC%16CC(NC(=O)CCC(C)C%17CCC%18C%19C(O)CC%20CC(NC(=O)CCC(C)C%21CCC%22C%23C(O)CC%24CC(NC(=O)CCC(C)C%25CCC%26C%27C(O)CC%28CC(Nc%29ccc([N+](=O)[O-])c%30nonc%29%30)CCC%28(C)C%27CC(O)C%25%26C)CCC%24(C)C%23CC(O)C%21%22C)CCC%20(C)C%19CC(O)C%17%18C)CCC%16(C)C%15CC(O)C%13%14C)CCC%12(C)C%11CC(O)C9%10C)CCC8(C)C7CC(O)C56C)CCC4(C)C3CC(O)C12C (stereo not shown) [Compound 4]									60	< 3
